Experiment [1] relates to human colorectal cancer cells (HCT116). Kind of experiment: Growth inhibition assay (cytotoxicity) in HCT116. The note with it: HCT-116. Type of experiment: cell-based. The method, then:
(§1) For present invention, the ATPase activity of yeast HSP90 was measured using malachite green assay. Formula I compounds for primary antitumoral activity were treated in human colorectal cancer cells (HCT116) showing increased expression levels of HSP90 client protein and cotoxicity IC50 values was measured as a result.

A further experiment has as its target yeast HSP90 (Saccharomyces cerevisiae, UniProt P02829). As to the kind of experiment: Hsp90 ATPase assay (malachite green). The format is biochemical. The method, then:
as §1

This note sets out measurements from patent publication US20120309750A1, “5-MEMBERED HETEROCYCLE DERIVATIVES AND MANUFACTURING PROCESS THEREOF” (ILDONG PHARM CO., LTD., priority 2010, published 2012).

yeast HSP90, sequence (P02829 whole entry): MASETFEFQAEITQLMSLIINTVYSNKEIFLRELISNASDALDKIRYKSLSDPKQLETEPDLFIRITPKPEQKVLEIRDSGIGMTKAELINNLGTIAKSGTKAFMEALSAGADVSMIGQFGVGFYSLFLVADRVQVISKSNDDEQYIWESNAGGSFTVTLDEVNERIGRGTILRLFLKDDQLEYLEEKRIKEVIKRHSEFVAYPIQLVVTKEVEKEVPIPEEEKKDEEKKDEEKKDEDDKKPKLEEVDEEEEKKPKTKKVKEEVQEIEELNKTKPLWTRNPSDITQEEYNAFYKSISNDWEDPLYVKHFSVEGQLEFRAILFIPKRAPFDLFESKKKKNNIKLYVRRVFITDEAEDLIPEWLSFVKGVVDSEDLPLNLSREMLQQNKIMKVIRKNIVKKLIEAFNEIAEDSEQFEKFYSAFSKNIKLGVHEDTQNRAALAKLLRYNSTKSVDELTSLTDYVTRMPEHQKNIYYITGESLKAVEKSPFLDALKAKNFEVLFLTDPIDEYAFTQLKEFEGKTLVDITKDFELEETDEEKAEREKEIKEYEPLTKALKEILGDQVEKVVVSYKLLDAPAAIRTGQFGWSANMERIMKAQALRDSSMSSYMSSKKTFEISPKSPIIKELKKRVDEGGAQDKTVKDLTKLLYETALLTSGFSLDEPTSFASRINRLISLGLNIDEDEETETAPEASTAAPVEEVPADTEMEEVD

A word on the IC50: it is the concentration that inhibits the measured activity by half. Higher therefore signals weaker potency. `CCNC(=O)c1noc(-c2cc(Cl)c(O)cc2O)c1-c1cc(CO)no1` [Compound I-24, 5-(5-Chloro-2,4-dihydroxyphenyl)-N-ethyl-3′-(hydroxymethyl)-4,5′-biisoxazole-3-carboxamide]: the IC50 was greater than 1000 nM in experiment [1] and 500 to 1000 nM against yeast HSP90.
With `CCNC(=O)c1noc(-c2cc(C(C)C)c(O)cc2O)c1-c1cc(C#N)no1` [Compound I-48, 3′-Cyano-5-(2,4-dihydroxy-5-isopropylphenyl)-N-ethyl-4,5′-biisoxazole-3-carboxamide], the results for the IC50 (in experiment [1]; against yeast HSP90) were less than 500 nM and 500 to 1000 nM, respectively.
For `CCNC(=O)c1noc(-c2cc(C(C)C)c(O)cc2O)c1-c1cc(CN2CCSCC2)no1` [Compound I-47, 5-(2,4-Dihydroxy-5-isopropylphenyl)-N-ethyl-3′-(thiomorpholinomethyl)-4,5′-biisoxazole-3-carboxamide] the same measures were less than 500 nM and less than 500 nM.
Turning to `CCNC(=O)c1noc(-c2cc(C(C)C)c(O)cc2O)c1-c1cc(COCC(=O)O)no1` [Compound I-33, 2-((5-(2,4-Dihydroxy-5-isopropylphenyl)-3-(ethylcarbamoyl)-4,5′-biisoxazol-3′-yl)methoxy)acetic acid], the IC50 (in experiment [1]; against yeast HSP90) was greater than 1000 nM in each case.
Regarding `CCNC(=O)c1cc(-c2c(C(=O)NCC)n[nH]c2-c2cc(C(C)C)c(O)cc2O)on1` [Compound I-29, 5-(5-(2,4-Dihydroxy-5-isopropylphenyl)-3-(ethylcarbamoyl)-1H-pyrazol-4-yl)-N-ethylisoxazole-3-carboxamide], the IC50 (in experiment [1]; against yeast HSP90) was greater than 1000 nM each time.
Regarding `CCNC(=O)c1noc(-c2cc(C(C)C)c(O)cc2O)c1-c1cc(/C=N/OCC)no1` [Compound I-55, 5-(2,4-Dihydroxy-5-isopropylphenyl)-3′-((ethoxyimino)methyl)-N-ethyl-4,5′-biisoxazole-3-carboxamide], the IC50 in experiment [1] is less than 500 nM; against yeast HSP90, 500 to 1000 nM.
In the case of `CCNC(=O)c1noc(-c2cc(C(C)C)c(O)cc2O)c1-c1cc(CN2CCCCC2)no1` [Compound I-38, 5-(2,4-Dihydroxy-5-isopropylphenyl)-N-ethyl-3′-(piperidin-1-ylmethyl)-4,5′-biisoxazole-3-carboxamide], the values for the IC50 (in experiment [1]; against yeast HSP90) were less than 500 nM and 500 to 1000 nM, respectively.
With `CCNC(=O)c1noc(-c2cc(C(C)C)c(O)cc2O)c1-c1cnn(C(C)C)c1` [Compound I-105, 5-(2,4-Dihydroxy-5-isopropylphenyl)-N-ethyl-4-(1-isopropyl-1H-pyrazol-4-yl)isoxazole-3-carboxamide], the figures for the IC50 (in experiment [1]; on yeast HSP90) were less than 500 nM and 500 to 1000 nM, respectively.
For the compound `CCNC(=O)c1noc(-c2cc(C(C)C)c(O)cc2O)c1-c1noc(-c2ccco2)n1` [Compound I-63, 5-(2,4-Dihydroxy-5-isopropylphenyl)-N-ethyl-4-(5-(furan-2-yl)-1,2,4-oxadiazol-3-yl)isoxazole-3-carboxamide], the IC50 (in experiment [1]; against yeast HSP90) was less than 500 nM each time.
In the case of `CCNC(=O)c1noc(-c2cc(C(C)C)c(O)cc2O)c1-c1noc(CN2CCCCC2)n1` [Compound I-94, 5-(2,4-Dihydroxy-5-isopropylphenyl)-N-ethyl-4-(5-(piperidin-1-ylmethyl)-1,2,4-oxadiazol-3-yl)isoxazole-3-carboxamide], the half-inhibitory concentration (IC50) (in experiment [1]; against yeast HSP90) was less than 500 nM throughout.
As to `CCNC(=O)c1noc(-c2cc(C(C)C)c(O)cc2O)c1-c1noc(CN2CCOCC2)n1` [Compound I-92, 5-(2,4-Dihydroxy-5-isopropylphenyl)-N-ethyl-4-(5-(morpholinomethyl)-1,2,4-oxadiazol-3-yl)isoxazole-3-carboxamide], the half-inhibitory concentration (IC50) in experiment [1] is less than 500 nM; on yeast HSP90, 500 to 1000 nM.
Consider `CCNC(=O)c1noc(-c2cc(C(C)C)c(O)cc2O)c1-c1ccnn1C` [Compound I-98, 5-(2,4-Dihydroxy-5-isopropylphenyl)-N-ethyl-4-(1-methyl-1H-pyrazol-5-yl)isoxazole-3-carboxamide], for which the IC50 (in experiment [1]; on yeast HSP90) was less than 500 nM each time.
